molecular target: human STING (Homo sapiens, UniProt Q86WV6); test: Fluorescence Thermal Shift assay (hSTING FTS binding assay); conditions: ΔTm, STING 0.1 mg/mL, SyproOrange, 25 to 99° C.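 Also: STING preincubated with compound for 20 min in HEPES NaCl buffer pH 7.5.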
Protocol: Fluorescence Thermal Shift Assay Compounds of the present invention were tested for binding to human STING in Fluorescence Thermal Shift assay. […] Final STING concentration was 0.1 mg/mL. Thermal unfolding was performed in Real-Time PCR QuantStudio 6 Flex System (Applied Biosystems), from 25 to 99° C., with continuous ramp mode and ramp rate 0.033° C./s. The data were analyzed using Protein Thermal Shift Software (ThermoFisher).

human STING, sequence (Q86WV6 whole entry H232R): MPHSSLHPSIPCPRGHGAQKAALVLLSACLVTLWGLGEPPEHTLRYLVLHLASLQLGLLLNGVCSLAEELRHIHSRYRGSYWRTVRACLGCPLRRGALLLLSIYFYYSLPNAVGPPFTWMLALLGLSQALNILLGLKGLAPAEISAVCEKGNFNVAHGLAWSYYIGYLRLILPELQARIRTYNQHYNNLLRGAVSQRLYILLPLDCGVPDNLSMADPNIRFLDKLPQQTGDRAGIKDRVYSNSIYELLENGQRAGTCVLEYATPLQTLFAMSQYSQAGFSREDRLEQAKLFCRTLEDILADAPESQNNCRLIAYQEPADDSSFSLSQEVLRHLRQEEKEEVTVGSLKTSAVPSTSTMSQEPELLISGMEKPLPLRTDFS

Compound	hSTING FTS binding assay (ΔT ° C.)
COCCn1cc(CN(Cc2ccnc(C)c2)[C@H]2CCCN(c3ccc(N)nc3)C2)c(=O)c2ccccc21.Cl [Example 21, 3-({[(3S)-1-(6-aminopyridin-3-yl)piperidin-3-yl][(2-methylpyridin-4-yl)methyl]amino}methyl)-1-(2-methoxyethyl)-1,4-dihydroquinolin-4-one Hydrochloride]	+++ (ΔTm≥20° C.)
Cc1ccc(N2CCC[C@H](N(Cc3ccnc(C)c3)Cc3cn(C4CC4)c4cc(N5CC(N)C6(CC6)C5)c(F)cc4c3=O)C2)cn1.Cl (stereo partly drawn) [Example 22, 7-{7-amino-5-azaspiro[2.4]heptan-5-yl}-1-cyclopropyl-6-fluoro-3-({[(3S)-1-(6-methylpyridin-3-yl)piperidin-3-yl][(2-methylpyridin-4-yl)methyl]amino}methyl)-1,4-dihydroquinolin-4-one Hydrochloride]	+++ (ΔTm≥20° C.)
Cc1ccc(N2CCC[C@H](N(Cc3ccnc(C)c3)Cc3cn(C)c4cc(N5CC[C@@H](O)C5)ccc4c3=O)C2)cn1 [Example 23, 7-[(3R)-3-hydroxypyrrolidin-1-yl]-1-methyl-3-({[(3S)-1-(6-methylpyridin-3-yl)piperidin-3-yl][(2-methylpyridin-4-yl)methyl]amino}methyl)-1,4-dihydroquinolin-4-one]	++ (10<ΔTm<20° C.)
Cc1ccc(N2CCC[C@H](N(Cc3ccnc(C)c3)Cc3cn(C4CC4)c4cc(N5CCC(N)C(F)(F)C5)c(F)cc4c3=O)C2)cn1 (stereo partly drawn) [Example 26, 7-(4-amino-3,3-difluoropiperidin-1-yl)-1-cyclopropyl-6-fluoro-3-({[(3S)-1-(6-methylpyridin-3-yl)piperidin-3-yl][(2-methylpyridin-4-yl)methyl]amino}methyl)-1,4-dihydroquinolin-4-one]	+++ (ΔTm≥20° C.)
Cc1cc(CN(Cc2cn(C)c3cc(Br)ccc3c2=O)[C@H]2CCCN(c3ccc(N)nc3)C2)ccn1.Cl [Example 29, 3-({[(3S)-1-(6-aminopyridin-3-yl)piperidin-3-yl][(2-methylpyridin-4-yl)methyl]amino}methyl)-7-bromo-1-methyl-1,4-dihydroquinolin-4-one Hydrochloride]	+++ (ΔTm≥20° C.)
Cc1ccc(N2CCC[C@H](N(Cc3ccnc(C)c3)Cc3cn(C4CC4)c4cc(N5CCC(F)(CN)C5)c(F)cc4c3=O)C2)cn1 (stereo partly drawn) [Example 30, 7-[3-(aminomethyl)-3-fluoropyrrolidin-1-yl]-1-cyclopropyl-6-fluoro-3-({[(3S)-1-(6-methylpyridin-3-yl)piperidin-3-yl][(2-methylpyridin-4-yl)methyl]amino}methyl)-1,4-dihydroquinolin-4-one]	+++ (ΔTm≥20° C.)
Cc1cc(CN(Cc2cn(C(C)C)c3ccccc3c2=O)[C@H]2CCCN(c3ccc(N)nc3)C2)ccn1.Cl [Example 34, 3-({[(3S)-1-(6-aminopyridin-3-yl)piperidin-3-yl][(2-methylpyridin-4-yl)methyl]amino}methyl)-1-(propan-2-yl)-1,4-dihydroquinolin-4-one Hydrochloride]	+++ (ΔTm≥20° C.)
Cc1cc(CN(Cc2cn(C3COC3)c3ccccc3c2=O)[C@H]2CCCN(c3ccc(N)nc3)C2)ccn1 [Example 35, 3-({[(3S)-1-(6-aminopyridin-3-yl)piperidin-3-yl][(2-methylpyridin-4-yl)methyl]amino}methyl)-1-(oxetan-3-yl)-1,4-dihydroquinolin-4-one]	+++ (ΔTm≥20° C.)
Cc1ccc(N2CCC[C@H](N(Cc3ccnc(C)c3)Cc3cn(C4CC4)c4nc(N5CC[C@@H](O)C5)c(F)cc4c3=O)C2)cn1.Cl [Example 37, 1-cyclopropyl-6-fluoro-7-[(3R)-3-hydroxypyrrolidin-1-yl]-3-({[(3S)-1-(6-methylpyridin-3-yl)piperidin-3-yl][(2-methylpyridin-4-yl)methyl]amino}methyl)-1,4-dihydro-1,8-naphthyridin-4-one Hydrochloride]	+++ (ΔTm≥20° C.)
Cc1cc(CN(Cc2cn(C(C)C)c3cc(N4CC[C@@H](O)C4)ccc3c2=O)[C@H]2CCCN(c3ccnnc3)C2)ccn1 [Example 49, 7-[(3R)-3-hydroxypyrrolidin-1-yl]-3-({[(2-methylpyridin-4-yl)methyl][(3S)-1-(pyridazin-4-yl)piperidin-3-yl]amino}methyl)-1-(propan-2-yl)-1,4-dihydroquinolin-4-one]	+ (ΔTm≤10° C.)
Cc1ccc(N2CCC[C@H](N(Cc3ccnc(C)c3)Cc3cn(C4CC4)c4cc(N5CCCC(C(=O)O)C5)c(F)cc4c3=O)C2)cn1 (stereo partly drawn) [Example 66, 1-[1-cyclopropyl-6-fluoro-3-({[(3S)-1-(6-methylpyridin-3-yl)piperidin-3-yl][(2-methylpyridin-4-yl)methyl]amino}methyl)-4-oxo-1,4-dihydroquinolin-7-yl]piperidine-3-carboxylic Acid]	+++ (ΔTm≥20° C.)
Cc1ccc(N2CCC[C@H](N(Cc3ccnc(C)c3)Cc3cn(C4CC4)c4cc(N5CCC(C(=O)O)CC5)c(F)cc4c3=O)C2)cn1 [Example 67, 1-[1-cyclopropyl-6-fluoro-3-({[(3S)-1-(6-methylpyridin-3-yl)piperidin-3-yl][(2-methylpyridin-4-yl)methyl]amino}methyl)-4-oxo-1,4-dihydroquinolin-7-yl]piperidine-4-carboxylic Acid]	+++ (ΔTm≥20° C.)

More lines, now with the values ahead:

hSTING FTS binding assay (ΔT ° C.)	Compound
+++ (ΔTm≥20° C.)	CNC1CCN(c2cc3c(cc2F)c(=O)c(CN(Cc2ccnc(C)c2)[C@H]2CCCN(c4ccc(C)nc4)C2)cn3C2CC2)CC1.Cl [Example 19, 1-cyclopropyl-6-fluoro-7-[4-(methylamino)piperidin-1-yl]-3-({[(3S)-1-(6-methylpyridin-3-yl)piperidin-3-yl][(2-methylpyridin-4-yl)methyl]amino}methyl)-1,4-dihydroquinolin-4-one Hydrochloride]
+++ (ΔTm≥20° C.)	Cc1ccc(N2CCC[C@H](N(Cc3ccnc(C)c3)Cc3cn(C4CC4)c4cc(N5CC[C@@H](CN)C5)c(F)cc4c3=O)C2)cn1.Cl [Example 20, 7-[(3S)-3-(aminomethyl)pyrrolidin-1-yl]-1-cyclopropyl-6-fluoro-3-({[(3S)-1-(6-methylpyridin-3-yl)piperidin-3-yl][(2-methylpyridin-4-yl)methyl]amino}methyl)-1,4-dihydroquinolin-4-one Hydrochloride]
+++ (ΔTm≥20° C.)	Cc1ccc(N2CCC[C@H](N(Cc3ccnc(C)c3)Cc3cn(C4CC4)c4cc(N5CC(CO)C5)c(F)cc4c3=O)C2)cn1 [Example 27, 1-cyclopropyl-6-fluoro-7-[3-(hydroxymethyl)azetidin-1-yl]-3-({[(3S)-1-(6-methylpyridin-3-yl)piperidin-3-yl][(2-methylpyridin-4-yl)methyl]amino}methyl)-1,4-dihydroquinolin-4-one]
+++ (ΔTm≥20° C.)	Cc1ccc(N2CCC[C@H](N(Cc3ccnc(C)c3)Cc3cn(C4CC4)c4cc(N5CCC[C@@H](O)C5)c(F)cc4c3=O)C2)cn1.Cl [Example 28, 1-cyclopropyl-6-fluoro-7-[(3R)-3-hydroxypiperidin-1-yl]-3-({[(3S)-1-(6-methylpyridin-3-yl)piperidin-3-yl][(2-methylpyridin-4-yl)methyl]amino}methyl)-1,4-dihydroquinolin-4-one Hydrochloride]
+++ (ΔTm≥20° C.)	Cc1ccc(N2CCC[C@H](N(Cc3ccnc(C)c3)Cc3cn(C4CC4)c4cc(N5CCC(O)CC5)c(F)cc4c3=O)C2)cn1.Cl [Example 32, 1-cyclopropyl-6-fluoro-7-(4-hydroxypiperidin-1-yl)-3-({[(3S)-1-(6-methylpyridin-3-yl)piperidin-3-yl][(2-methylpyridin-4-yl)methyl]amino}methyl)-1,4-dihydroquinolin-4-one Hydrochloride]
+++ (ΔTm≥20° C.)	CNC1CCN(c2cc3c(cc2F)c(=O)c(CN(Cc2ccnc(C)c2)[C@H]2CCCN(c4ccc(C)nc4)C2)cn3C2CC2)C1 (stereo partly drawn) [Example 33, 1-cyclopropyl-6-fluoro-7-[3-(methylamino)pyrrolidin-1-yl]-3-({[(3S)-1-(6-methylpyridin-3-yl)piperidin-3-yl][(2-methylpyridin-4-yl)methyl]amino}methyl)-1,4-dihydroquinolin-4-one]
+++ (ΔTm≥20° C.)	CN[C@@H]1CCN(c2cc3c(cc2F)c(=O)c(CN(Cc2ccnc(C)c2)[C@H]2CCCN(c4ccc(C)nc4)C2)cn3C2CC2)C1.Cl [Example 55, 1-Cyclopropyl-6-fluoro-7-[(3R)-3-(methylamino)pyrrolidin-1-yl]-3-({[(3S)-1-(6-methylpyridin-3-yl)piperidin-3-yl][(2-methylpyridin-4-yl)methyl]amino}methyl)-1,4-dihydroquinolin-4-one Hydrochloride]
+++ (ΔTm≥20° C.)	CN[C@H]1CCN(c2cc3c(cc2F)c(=O)c(CN(Cc2ccnc(C)c2)[C@H]2CCCN(c4ccc(C)nc4)C2)cn3C2CC2)C1.Cl [Example 58, 1-Cyclopropyl-6-fluoro-7-[(3S)-3-(methylamino)pyrrolidin-1-yl]-3-({[(3S)-1-(6-methylpyridin-3-yl)piperidin-3-yl][(2-methylpyridin-4-yl)methyl]amino}methyl)-1,4-dihydroquinolin-4-one Hydrochloride]
+++ (ΔTm≥20° C.)	Cc1ccc(N2CCC[C@H](N(Cc3ccnc(C)c3)Cc3cn(C4CC4)c4cc(N5CCC6NCCC6C5)c(F)cc4c3=O)C2)cn1 (stereo partly drawn) [Example 68, 1-cyclopropyl-6-fluoro-3-({[(3S)-1-(6-methylpyridin-3-yl)piperidin-3-yl][(2-methylpyridin-4-yl)methyl]amino}methyl)-7-{octahydro-1H-pyrrolo[3,2-c]pyridin-5-yl}-1,4-dihydroquinolin-4-one]
